From US20250332176A1, “TREATMENT FOR FIBROSIS AND INHIBITION OF FIBROSIS” (GALMED RESEARCH AND DEVELOPMENT LTD, priority 2022, published 2025)
“Also recorded” adds a separate entry of the source. Like-named read-outs stand apart in the source and are kept apart here.

Assays:
[1] = Phase 2b steady state trough (Cmin) plasma concentration in patients; assay type: in vivo, human; conditions: for AUC/Dose / Relative bioavailability (AUC/Dose normalized to 30 mg HV data) / concentration at 84 day / AUC: patients; for AUC/Dose / Relative bioavailability (AUC/Dose normalized to 30 mg HV data) / concentration at 84 day: D84; for concentration at 84 day: read-out: SS Cmin; for AUC: estimated from observed Cmin on D84*24 h
Description: Blood sample for Aramchol™ trough level will be collected (pre-dose) from patients in Israel at baseline (visit 2) week 4 (visit 4), week 12 (visit 6), week 24 (visit 7), week 40 (visit 9), end of treatment (visit 10) and follow up (visit 11). At selected sites in Mexico, USA and Hong Kong one blood sample will be collected (pre-dose) on visit 4 (up to 10 subjects per country) to test for trough Aramchol™ blood level differences between populations (e.g., African American, Asian, Hispanic).
Table 1 summarizes the reported plasma exposure from three studies-single dose Phase I in healthy volunteers (30-900 mg, AUC=AUCinf); Phase II ARAMCHOL™ 003 repeat dose study (AUC on D84 from 100 & 300 mg QD), Phase IIb Cmin on D84 (400 and 600 mg QD).
The steady state (day 84) Cmin in patients at 400 mg and 600 mg has been measured. […] Again, this may reflect inter-subject variability or a difference in the excipients used in the tablets.

[2] = system: Primary hepatocytes from C57BL/6 mice; experiment: PPARγ mRNA expression in primary hepatocytes (qPCR); assay type: cell-based; conditions: Aramchol 10 μM, 48 hours
Experimental: Serum-starved LX2 cells were treated with Aramchol™ (10 μM) for 24 or 48 hours. Fibrogenic gene expression and SCD-1 protein expression were measured by qPCR and Western, respectively. RNAseq was performed at 24 and 48 h in duplicate. Differential gene expression was assessed with DSeq2, while gene set enrichment analysis (GSEA) and gene ontology (GO) analyses assessed functionality of gene expression changes. Primary hepatocytes from C57BL/6 mice were harvested by perfusion and treated with Aramchol™ ([…]) for 48 hours in culture. PPAR γ mRNA expression was measured by qPCR.

Wistar rats = experiment: Thioacetamide (TAA)-induced fibrosis, model for hepatic cirrhosis; assay type: in vivo; conditions: 5 mg/kg, co-administered with TAA during 10 weeks
Experimental: Liver fibrosis was induced in Wistar rats by intraperitoneal injections of TAA (20 mg/100 gr body weight) twice per week during 10 weeks. I.p. application of TAA results in hepatic centrolobular necrosis, elevated transaminase activity and robust liver fibrosis. Treatment groups further included co-administration of Aramchol™ (1 or 5 mg/kg orally) or obaticholic acid (OCA, 5 mg/kg). A control group of saline-treated rats (in the absence of TAA administration) was further included. Rats were then sacrificed, and livers were observed macroscopically for signs of cirrhosis and necrotic lesions, and microscopically, following Masson Goldner staining. The fibrosis score, calculated at a scale of 0-4, was determined for each sample, wherein 0 indicates no fibrosis and 4 indicates advanced fibrosis and cirrhosis.

[3] = Modelling and simulation of 300 mg BID and 600 mg QD doses in patients (Phoenix 64, single compartment); set-up: species or system human; conditions: correction for sub-proportional PK
Experimental: Given the sub-proportional exposure generally seen, splitting the same total daily dose into two BID doses is likely to increase plasma AUC. The aim of this analysis was to model this behavior.
The 300 mg data on day 1 and day 84 in patients (Phase 2 ARAMCHOL™ 003) has been modelled in Phoenix 64@ assuming single compartment pharmacokinetics (parameterized by Cl and V) and first order absorption at a rate Ka with a delay, Tlag. The fitted model parameters all have a CV<25% and the predicted concentration data reasonably capture the observed data as shown in FIGS. 13A-13C.
To predict exposure at 600 mg, a correction for sub-proportional PK (lower bioavailability at higher dose) has been made assuming the same non-linearity at observed in healthy volunteers.

- AUC/Dose ([1]; 400 mg QD): 172 ng/mL · h/(mg/kg)
- Relative bioavailability (AUC/Dose normalized to 30 mg HV data) ([1]; 400 mg QD): 0.43
- AUC/Dose ([1]; 600 mg QD): 144 ng/mL · h/(mg/kg)
- Relative bioavailability (AUC/Dose normalized to 30 mg HV data) ([1]; 600 mg QD): 0.36
- half-life ([1]; human, plasma, oral): > 24 h
- concentration at 84 day ([1]; human, plasma, oral, 400 mg QD): 2860 ng/mL
- AUC ([1]; human, plasma, oral, 400 mg QD): 68600 ng·h/mL
- concentration at 84 day ([1]; human, plasma, oral, 600 mg QD): 3610 ng/mL
- AUC ([1]; human, plasma, oral, 600 mg QD): 86700 ng·h/mL
- relative bioavailability at 600 mg compared to 300 mg [3]: approximately 0.75 fold
Structure (SMILES): CCCCCCCCCCCCCCCCCCCC(=O)N[C@H]1CC[C@@]2(C)[C@@H](C1)C[C@@H](O)[C@@H]1[C@@H]2C[C@H](O)[C@]2(C)[C@@H]([C@H](C)CCC(=O)O)CC[C@@H]12 [Aramchol™, 3β-arachidylamido-7α, 12α-dihydroxy-5β-cholan-24-oic acid]
- PPARγ mRNA expression (qPCR) [2]: does not affect
- TAA induced fibrosis (Wistar rats): significantly prevented
- development of necrosis and cirrhosis (macroscopic) (Wistar rats): reduced significantly; also recorded: significantly inhibited
- fibrotic score and collagen distribution in the tissue (Masson Goldner staining) (Wistar rats; score scale 0-4): reduced significantly
